Values joined by “and” are separate entries in the source; they are usually repeats but may differ in a detail not shown here. Identical values can stand only once. Like-named read-outs stand apart in the source and are kept apart here. Each block holds one molecule with its values, some of them ahead of it.
Assays:
[1] = target: kynurenine aminotransferase II (KAT II) (Rattus norvegicus, UniProt Q64602); test: Reverse microdialysis of the KAT II inhibitor ESBA in JM6-treated rats; format: in vivo; conditions: JM6 100 mg/kg p.o., ESBA 1 mM locally for 2 h by reverse microdialysis
kynurenine aminotransferase II (KAT II), sequence (Q64602 30-425): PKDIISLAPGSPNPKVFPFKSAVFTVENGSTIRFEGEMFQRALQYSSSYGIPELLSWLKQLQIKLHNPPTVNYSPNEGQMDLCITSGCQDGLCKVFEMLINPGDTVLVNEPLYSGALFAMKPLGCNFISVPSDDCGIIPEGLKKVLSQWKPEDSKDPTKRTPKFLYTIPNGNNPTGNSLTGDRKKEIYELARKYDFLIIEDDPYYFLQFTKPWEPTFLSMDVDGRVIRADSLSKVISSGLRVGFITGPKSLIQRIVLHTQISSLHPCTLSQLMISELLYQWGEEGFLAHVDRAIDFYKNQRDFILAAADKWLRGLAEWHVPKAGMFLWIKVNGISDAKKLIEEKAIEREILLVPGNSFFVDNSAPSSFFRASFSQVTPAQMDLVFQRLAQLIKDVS

[2] = format: in vivo, mice; conditions: 5 h
KMO [3] = test: In vivo microdialysis in prefrontal cortex of rats treated 7 days with JM6; conditions: JM6 for 7 days, 100 mg/kg/day p.o. (legend: 75 mg/kg/day)
APPtg mice [4] = test: Morris water maze in APPtg mice; format: in vivo
APPtg mice [5] = test: Elevated plus maze in APPtg mice; format: in vivo; conditions: JM6 75 mg/kg/day p.o. for ~120 days
APPtg mice [6] = test: Neuropathology; format: in vivo
APPtg mice [7] = format: in vivo; conditions: JM6 75 mg/kg/day p.o. for 120 days
R6/2 mice [8] = test: Survival, body weight and rotarod in R6/2 mice; format: in vivo; conditions: chronic JM6 p.o., data not shown
WT mice = test: Chronic tolerability of JM6 in WT mice; format: in vivo; conditions: JM6 25 mg/kg/day p.o. for 12 months, data not shown
R6/2 mice [9] = test: Neuropathology; format: in vivo
KMO [10] = test: In vivo microdialysis in striatum and serum sampling of rats after acute JM6; conditions: for Level in brain dialysate: JM6 100 mg/kg p.o., data not shown
KMO [11] = target: KMO (Rattus norvegicus, UniProt O88867); test: Inhibition of KMO; format: biochemical; conditions: read-out: IC50 for KMO
KMO (Rattus norvegicus, UniProt O88867), sequence (O88867 whole entry): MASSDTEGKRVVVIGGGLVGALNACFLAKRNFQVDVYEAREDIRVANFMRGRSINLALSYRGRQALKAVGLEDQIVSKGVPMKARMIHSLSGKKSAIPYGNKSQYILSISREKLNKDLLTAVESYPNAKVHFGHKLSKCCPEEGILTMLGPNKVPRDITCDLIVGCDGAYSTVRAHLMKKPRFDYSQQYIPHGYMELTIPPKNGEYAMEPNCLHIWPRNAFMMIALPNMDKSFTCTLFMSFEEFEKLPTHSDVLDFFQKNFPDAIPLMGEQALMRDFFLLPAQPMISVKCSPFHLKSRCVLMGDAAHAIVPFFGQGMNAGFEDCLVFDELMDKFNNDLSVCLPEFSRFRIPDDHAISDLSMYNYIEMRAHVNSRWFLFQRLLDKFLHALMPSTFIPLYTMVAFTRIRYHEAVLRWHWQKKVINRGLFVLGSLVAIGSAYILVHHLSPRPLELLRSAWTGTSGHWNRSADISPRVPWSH

[12] = Ro 61-8048 levels in plasma and tissues of chronically JM6-treated R6/2 mice; format: in vivo
[13] = Metabolic stability of Ro 61-8048; format: in vitro ADME; conditions: data not shown
[14] = WT mice, single JM6 300 mg/kg p.o., LC/MS, 300 mg/kg
[15] = JM6 75 mg/kg/day p.o., data not shown
[16] = JM6 7.5 or 25 mg/kg/day p.o., 12-week-old mice
[17] = WT mice, single JM6 300 mg/kg p.o., LC/MS
[18] = R6/2 mice chronically treated with JM6

- Effect on JM6-induced increases in brain KYNA [1]: prevented completely
- Effect on KYNA levels in serum [1]: unaffected
SMILES: CCS(=O)(=O)c1ccc(C(=O)C[C@H](N)C(=O)O)cc1.Cl [ESBA, (S)-(4-ethylsulfonyl)benzoylalanine hydrochloride]

- Muscle and liver levels after acute dosing ([2]; WT mice, JM6 300 mg/kg p.o.): negligible
- JM6 concentration in brain [2, 14]: 119 ± 46 nM
- JM6 concentration in plasma [2, 14]: 39.1 ± 13.2 µM
- Level in brain dialysate (KMO [10]): < 10 nM
SMILES: COc1ccc(S(=O)(=O)Nc2nc(-c3cccc([N+](=O)[O-])c3)c(CN3CCCCC3)s2)cc1OC [JM6, 2-(3,4-dimethoxybenzenesulfonylamino)-4-(3-nitrophenyl)-5-(piperidin-1-yl)methylthiazole]
- Extracellular glutamate levels in the brain (prefrontal cortex) (KMO [3]): significant reduction
- Spatial memory in Morris water maze, WT mice (APPtg mice [4]; JM6 75 mg/kg/day p.o.): no effect
- Spatial memory in Morris water maze, APPtg mice (APPtg mice [4]; JM6 75 mg/kg/day p.o. from 2 months of age, tested at ~6 months): significant improvement
- Spatial learning in WT or APPtg mice (APPtg mice [4]; [15]): did not influence
- Increase in distance traveled in the open arm of the EPM, APPtg mice (APPtg mice [5]): significantly attenuated
- Time spent in the open arm of the elevated plus maze, APPtg mice (APPtg mice [5]): not significantly different from WT littermate controls
- Total distance traveled in the EPM (open and closed arm), APPtg mice (APPtg mice [5]): not changed
- Synaptic loss (synaptophysin) in cortex and hippocampus, APPtg mice (APPtg mice [6]; JM6 75 mg/kg/day p.o. for 120 days, ~7 months of age): prevented
- Aβ plaque load in hippocampus and cortex, APPtg mice (APPtg mice [6]; [15]): did not have a significant effect
- Brain 3-HK levels, APPtg mice, vs control mice (APPtg mice [7]): not significantly different
- Brain KMO activity, APPtg mice, vs control mice (APPtg mice [7]): not significantly different
- Brain KYNA levels, APPtg mice (APPtg mice [7]): increased
- Brain QUIN levels, APPtg mice, vs control mice (APPtg mice [7]): not significantly different
- Plasma KYNA levels, APPtg mice (APPtg mice [7]): increased
- Plasma QUIN levels, APPtg mice, vs control mice (APPtg mice [7]): not significantly different
- Body weight of R6/2 mice (R6/2 mice [8]): did not influence
- Performance on accelerating rotarod, R6/2 mice (R6/2 mice [8]; early stages of disease): modestly improved
- Adverse effects on open field behavior, motor performance, or body weight (WT mice): no adverse effects
- Inclusion body size or abundance in frontoparietal cortex, R6/2 mice (R6/2 mice [9]; JM6 25 mg/kg/day p.o. from 4 weeks of age, EM48 immunostaining): did not influence
- Iba1-positive cells (microglia) vs vehicle-treated controls, R6/2 mice (R6/2 mice [9]; JM6 7.5 or 25 mg/kg/day p.o. from 4 weeks of age): significantly fewer
- Fos immunoreactivity in striatum and cortex, R6/2 mice (R6/2 mice [9]; [16]): prevented the loss
- Synaptophysin in striatum and cortex, R6/2 mice (R6/2 mice [9]; [16]): prevented the loss
- Serum KYNA level, % of baseline (KMO [10]; single JM6 100 mg/kg p.o., by 5 h): 344%
- Extracellular KYNA level in brain (striatum), % of baseline (KMO [10]; single JM6 100 mg/kg p.o., by 5 h, microdialysis): 180%

SMILES: COc1ccc(S(=O)(=O)Nc2nc(-c3cccc([N+](=O)[O-])c3)cs2)cc1OC [Ro 61-8048, 3,4-dimethoxy-[-N-4-(nitrophenyl)thiazol-2yl]-benzenesulfonamide]
- IC50 (KMO [11]): 37 nM
- Muscle and liver levels after acute dosing ([2]; WT mice, JM6 300 mg/kg p.o.): negligible
- Ro 61-8048 released from JM6, brain level as % of plasma levels ([2]; WT mice, single JM6 300 mg/kg p.o.): 0.002%
- Ro 61-8048 released from JM6, concentration in brain [2, 17]: 18 nM and 18 ± 5 nM
- Ro 61-8048 released from JM6, concentration in plasma [2, 17]: 7 µM and 7.2 ± 0.8 µM
- Ro 61-8048 released from JM6, concentration in liver ([2]; mice, JM6 300 mg/kg p.o.): 132 nM
- Ro 61-8048 released from JM6, concentration in muscle ([2]; mice, JM6 300 mg/kg p.o.): 149 nM
- Plasma concentration relative to IC50 for KMO [12, 18]: more than eightfold
- Ro 61-8048 released from JM6, concentration in plasma [12, 18]: ~ 280 nM
- Ro 61-8048 released from JM6 in brain or muscle homogenates ([12]; R6/2 mice chronically treated with JM6, data not shown): could not be detected
- Metabolic stability [13]: metabolically unstable
- Level in brain dialysate (KMO [10]): < 10 nM

From article PMC3118409 (Cell, 2011)
